From PubChem BioAssay AID1963971 (Molecular Pharmacology Branch, DTP, NCI, 2024)

Test system: 953936-095-R-J2-PDC spheroids with HUVEC/MSC, viability
Assay: Anticancer human tumor 953936-095-R-J2-PDC patient-derived cervical squamous cell carcinoma cell line growth inhibition [PI3K]
Conditions: for IC50: curve of first compound; for viability, T/C: stronger effect = lower value; active = viability on the fitted dose curve at most 10% of control; inactive = the rest
Excerpt: Combinatorial screen of targeted agents with the PI3K inhibitors inavolisib, alpelisib, duvelisib, and copanlisib in multi-cell type tumor spheroids
A high-throughput screen of multi-cell type tumor spheroids was designed to identify active combinations of targeted small molecules and PI3K pathway inhibitors. Complex spheroids include a stromal component modeled by human endothelial cells (HUVEC) and fibroblasts modeled by human mesenchymal stem cells (MSCs). The concentration ranges selected for each drug and investigational agent were based upon clinically achievable concentrations if the clinical Cmax of the agent was known.
Compounds. The drugs and investigational agents: inavolisib (NSC800729), alpelisib (NSC765974), duvelisib (NSC772469), copanlisib (NSC816437), ipatasertib (NSC767898), afuresertib (NSC778305), talazoparib (NSC767125), sapanisertib (NSC764658), selumetinib (NSC741078), tovorafenib (DAY101, NSC766906), vemurafenib (NSC761431), ravoxertinib (NSC781343), sotorasib (NSC818433), MRTX1133 (NSC 836407), abemaciclib (NSC 768073), palbociclib (NSC758247), venetoclax (NSC 766270), SY5609 (NSC837396), enzalutamide (NSC755605), and darolutamide (NSC825331), were obtained from the National Cancer Institute (NCI) Developmental Therapeutics Program Chemical Repository. The FDA-approved anticancer drug set is available from the NCI Developmental Therapeutics Program. […] The stock solutions were prepared in dimethyl sulfoxide (DMSO, Sigma-Aldrich, St. Louis, MO, cat. D2650) at 800-fold the tested concentration and stored at -70 degrees C prior to their use. All drugs and investigational agents were tested over a range starting from a high concentration at or near the clinical Cmax and decreasing in half-log increments. If the clinical Cmax for an agent had not been determined, the highest concentration tested was 10 microM.
Cell Culture. All cells were maintained in an incubator at 37 degrees C and 5% CO2 with 95% humidity. The PDC lines were cultured according to standard operating procedures established by the NCI PDMR (https://pdmr.cancer.gov/sops/default.htm). All PDCs were thawed and cultured in Matrigel-coated flasks prepared with a working solution of 1X Ham's F-12 nutrient mix, without supplementation (Invitrogen, Waltham, MA, cat. 11765054), 100 U/mL penicillin-streptomycin (Invitrogen, cat. 15140122), and 2.5% Matrigel (Corning Inc., Corning, NY, cat. 354248) for the first three passages. The 354836-022-R-J1-PDC, 475296-252-R-J1-PDC, and 997726-040-R-J2-PDC lines were cultured in 6A media, which includes advanced DMEM/F-12 (Thermo Fisher Scientific, cat. 12634028), 10 mM HEPES (Thermo Fisher Scientific, cat. 15630080), 1X GlutaMAX supplement (Thermo Fisher Scientific, cat. 35050061), 0.1 mg/mL primocin (InvivoGen, San Diego, CA, cat. ant-pm-2), 10% defined fetal bovine serum, heat inactivated (HyClone Laboratories Inc., Logan, UT, cat. SH30070.03HI), 50% L-WRN conditioned media (ATCC, cat. CRL-3276), 1.25 mM N-Acetyl-L-cysteine (Sigma-Aldrich, cat. A9165), 10 mM nicotinamide (Sigma-Aldrich, cat. N0636), 1X B-27 supplement (Thermo Fisher Scientific, cat. 17504044), 1X N-2 supplement (Thermo Fisher Scientific, cat. 17502048), and 10 microM Y-27632 dihydrochloride (Tocris Bioscience, Bristol, United Kingdom, cat. 1254). The 624824-186-R-J2-PDC line was cultured in 6C/Colon 1B media, which includes all 6A media components plus 50 ng/mL human EGF recombinant protein (Thermo Fisher Scientific, cat. PHG0311). […]

[1] = second compound 0.00316 µM, first compound 0.0316 µM
[2] = second compound 0.00316 µM, first compound 0.1 µM
[3] = second compound 0.01 µM, first compound 0.0316 µM
[4] = second compound 0.01 µM, first compound 0.1 µM
[5] = second compound 0.0316 µM, first compound 0.0316 µM
[6] = second compound 0.0316 µM, first compound 0.1 µM
[7] = second compound 0.1 µM, first compound 0.0316 µM
[8] = second compound 0.1 µM, first compound 0.1 µM
[9] = second compound 0.316 µM, first compound 0.0316 µM
[10] = second compound 0.316 µM, first compound 0.1 µM
[11] = second compound 1 µM, first compound 0.0316 µM
[12] = second compound 1 µM, first compound 0.1 µM
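Note: spheroids exposed to compounds for seven days before read-out.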

CC(C)NCC(C(=O)N1CCN(c2ncnc3c2C(C)CC3O)CC1)c1ccc(Cl)cc1 (centres undefined) + CC(Nc1ccc2c(c1)OCCn1cc(N3C(=O)OCC3C(F)F)nc1-2)C(N)=O
890 nM: IC50 (second compound 0.00316 µM)
< 31.6 nM: IC50 (second compound 0.316 µM) | IC50 (second compound 1 µM)
640 nM: IC50 (second compound 0.0316 µM)
176 nM: IC50 (second compound 0.1 µM)
865 nM: IC50 (second compound 0.01 µM)
active: viability, T/C (second compound 0.316 µM, first compound 10 µM) 9.25% | viability, T/C (second compound 1 µM, first compound 10 µM) 7.62%
inactive: viability, T/C [1] 89.5% | viability, T/C [2] 88.2% | viability, T/C (second compound 0.00316 µM, first compound 0.316 µM) 73.9% | viability, T/C (second compound 0.00316 µM, first compound 1 µM) 48% | viability, T/C (second compound 0.00316 µM, first compound 3.16 µM) 22.5% | viability, T/C (second compound 0.00316 µM, first compound 10 µM) 15.1% | viability, T/C [3] 87% | viability, T/C [4] 86.1% | viability, T/C (second compound 0.01 µM, first compound 0.316 µM) 71.3% | viability, T/C (second compound 0.01 µM, first compound 1 µM) 48.3% | viability, T/C (second compound 0.01 µM, first compound 3.16 µM) 20.9% | viability, T/C (second compound 0.01 µM, first compound 10 µM) 14.1% | viability, T/C [5] 79.1% | viability, T/C [6] 76% | viability, T/C (second compound 0.0316 µM, first compound 0.316 µM) 63.5% | viability, T/C (second compound 0.0316 µM, first compound 1 µM) 42% | viability, T/C (second compound 0.0316 µM, first compound 3.16 µM) 18.4% | viability, T/C (second compound 0.0316 µM, first compound 10 µM) 11.4% | viability, T/C [7] 57.2% | viability, T/C [8] 55% | viability, T/C (second compound 0.1 µM, first compound 0.316 µM) 45.5% | viability, T/C (second compound 0.1 µM, first compound 1 µM) 31.2% | viability, T/C (second compound 0.1 µM, first compound 3.16 µM) 18.6% | viability, T/C (second compound 0.1 µM, first compound 10 µM) 9.8% | viability, T/C [9] 35.8% | viability, T/C [10] 33.9% | viability, T/C (second compound 0.316 µM, first compound 0.316 µM) 30.6% | viability, T/C (second compound 0.316 µM, first compound 1 µM) 23.6% | viability, T/C (second compound 0.316 µM, first compound 3.16 µM) 13% | viability, T/C [11] 23% | viability, T/C [12] 22.3% | viability, T/C (second compound 1 µM, first compound 0.316 µM) 19.3% | viability, T/C (second compound 1 µM, first compound 1 µM) 15.4% | viability, T/C (second compound 1 µM, first compound 3.16 µM) 14%

Cn1ncnc1[C@H]1c2n[nH]c(=O)c3cc(F)cc(c23)N[C@@H]1c1ccc(F)cc1 + CC(Nc1ccc2c(c1)OCCn1cc(N3C(=O)OCC3C(F)F)nc1-2)C(N)=O
> 100 nM: IC50 (second compound 0.00316 µM) | IC50 (second compound 0.01 µM) | IC50 (second compound 0.0316 µM) | IC50 (second compound 0.1 µM)
inactive: viability, T/C (second compound 0.00316 µM, first compound 0.000316 µM) 99.8% | viability, T/C (second compound 0.00316 µM, first compound 0.001 µM) 104% | viability, T/C (second compound 0.00316 µM, first compound 0.00316 µM) 105% | viability, T/C (second compound 0.00316 µM, first compound 0.01 µM) 100% | viability, T/C [1] 98.9% | viability, T/C [2] 91.7% | viability, T/C (second compound 0.01 µM, first compound 0.000316 µM) 103% | viability, T/C (second compound 0.01 µM, first compound 0.001 µM) 106% | viability, T/C (second compound 0.01 µM, first compound 0.00316 µM) 88.1% | viability, T/C (second compound 0.01 µM, first compound 0.01 µM) 94.2% | viability, T/C [3] 95% | viability, T/C [4] 86.2% | viability, T/C (second compound 0.0316 µM, first compound 0.000316 µM) 80% | viability, T/C (second compound 0.0316 µM, first compound 0.001 µM) 79% | viability, T/C (second compound 0.0316 µM, first compound 0.00316 µM) 77.5% | viability, T/C (second compound 0.0316 µM, first compound 0.01 µM) 79.9% | viability, T/C [5] 80.2% | viability, T/C [6] 74.2% | viability, T/C (second compound 0.1 µM, first compound 0.000316 µM) 58.8% | viability, T/C (second compound 0.1 µM, first compound 0.001 µM) 56% | viability, T/C (second compound 0.1 µM, first compound 0.00316 µM) 60.4% | viability, T/C (second compound 0.1 µM, first compound 0.01 µM) 57.9% | viability, T/C [7] 54.8% | viability, T/C [8] 50.8% | viability, T/C (second compound 0.316 µM, first compound 0.000316 µM) 34.3% | viability, T/C (second compound 0.316 µM, first compound 0.001 µM) 35.9% | viability, T/C (second compound 0.316 µM, first compound 0.00316 µM) 35.3% | viability, T/C (second compound 0.316 µM, first compound 0.01 µM) 33.9% | viability, T/C [9] 34% | viability, T/C [10] 33% | viability, T/C (second compound 1 µM, first compound 0.000316 µM) 23.3% | viability, T/C (second compound 1 µM, first compound 0.001 µM) 23.3% | viability, T/C (second compound 1 µM, first compound 0.00316 µM) 22.2% | viability, T/C (second compound 1 µM, first compound 0.01 µM) 23.7% | viability, T/C [11] 23% | viability, T/C [12] 24.4%
< 0.316 nM: IC50 (second compound 0.316 µM) | IC50 (second compound 1 µM)
